According to patent US20240252454A1, “COMPOSITION COMPRISING AN INHIBITOR OF MITOCHONDRIAL TRANSCRIPTION” (LEAD DISCOVERY CENTER GMBH, priority 2021, published 2024):

What was measured:
Assay type in all cases: cell-based
A2780 = test: SRB assay, IMT combined with inhibitor; settings: A2780 (ovary); concentration series of the labelled inhibitor + fixed concentration of IMT (3S)-1-[(2R)-2-[4-(2-chloro-4-fluoro-phenyl)-2-oxo-chromen-7-yl]oxypropanoyl]piperidine-3-carboxylic acid (Table 3: 40 nM, 120 h); negative=synergistic, positive=antagonistic
Procedure: In two studies, the ovarian cell line A2780 was tested for 72 hours with the IMT N,N-dimethyl-2-[4-(o-tolyl)-2-oxo-chromen-7-yl]oxy-propanamide (30 μM-15 nM) and the MEK inhibitor Selumetinib (30 μM-10 nM), or with the IMT 1-[2-[4-(2-chlorophenyl)-2-oxo-chromen-7-yl]oxypropanoyl]piperidine-3-sulfonamide (30 μM-15 nM) and the MEK inhibitor PD318088 (30 μM-10 nM).
(§1) Solforhodamine B assay is carried out as described in Voigt W. (2005) Sulforhodamine B Assay and Chemosensitivity. (Methods in Molecular Medicine™, vol 110. Humana Press. https://doi.org/10.1385/1-59259-869-2:039).
(§2) The determination of changes in cellular biomass was based on the Solforhodamine B assay format, carried out as described in Voigt W. (2005) Sulforhodamine B Assay and Chemosensitivity. (Methods in Molecular Medicine™, vol 110. Humana Press. https://doi.org/10.1385/1-59259-869-2:039).
(§3) All in vitro cell culture experiments were carried out under near physiological glucose concentrations (5 mM) in at least two independent replicates.
First, 30 different cell lines from 14 different tissue types were tested in the SRB assay format. The cells were examined individually for changes in growth over a period of 120 hours with dilution series of both inhibitors. Untreated cells were used as a negative control group. Subsequently, a dilution series of the respective MAPK signalling pathway SOCs was treated in combination with a fixed concentration of 40 nM (3S)-1-[(2R)-2-[4-(2-chloro-4-fluoro-phenyl)-2-oxo-chromen-7-yl]oxypropanoyl]piperidine-3-carboxylic acid.

MDAMB468 = test: SRB assay, IMT combined with inhibitor; settings: MDAMB468 (breast); concentration series of the labelled inhibitor + fixed concentration of IMT (3S)-1-[(2R)-2-[4-(2-chloro-4-fluoro-phenyl)-2-oxo-chromen-7-yl]oxypropanoyl]piperidine-3-carboxylic acid; negative=synergistic, positive=antagonistic
Procedure: as §1, §2, §3
(§4) To establish the method described, combinations of (3S)-1-[(2R)-2-[4-(2-chloro-4-fluoro-phenyl)-2-oxo-chromen-7-yl]oxypropanoyl]piperidine-3-carboxylic acid and various PARPi were tested with regard to their effect on the cell growth of 33 tumour cell lines from different tissues, in the SRB and CTG assay format. The assay methods and protocols in cell culture and measurement followed the procedure as described in Example 1). […] This initial study was followed by validation experiments in a matrix format and in the CTG assay, as described for Example 1) (Table 6.)

ASPC1 = test: SRB assay, IMT combined with inhibitor; settings: ASPC1 (pancreas); concentration series of the labelled inhibitor + fixed concentration of IMT (3S)-1-[(2R)-2-[4-(2-chloro-4-fluoro-phenyl)-2-oxo-chromen-7-yl]oxypropanoyl]piperidine-3-carboxylic acid; negative=synergistic, positive=antagonistic
Procedure: as §1, §2, §3, §4

A204 = test: SRB assay, IMT combined with inhibitor; settings: A204 (muscle); concentration series of the labelled inhibitor + fixed concentration of IMT (3S)-1-[(2R)-2-[4-(2-chloro-4-fluoro-phenyl)-2-oxo-chromen-7-yl]oxypropanoyl]piperidine-3-carboxylic acid; negative=synergistic, positive=antagonistic
Procedure: as §1, §2, §3, §4

MCF7 = test: SRB assay, IMT combined with inhibitor; settings: MCF7 (breast); concentration series of the labelled inhibitor + fixed concentration of IMT (3S)-1-[(2R)-2-[4-(2-chloro-4-fluoro-phenyl)-2-oxo-chromen-7-yl]oxypropanoyl]piperidine-3-carboxylic acid; negative=synergistic, positive=antagonistic
Procedure: as §1, §2, §3, §4

[1] = system: 33 tumour cell lines from different tissues; test: SRB assay, panel of tumour cell lines; settings: fixed concentration of IMT (3S)-1-[(2R)-2-[4-(2-chloro-4-fluoro-phenyl)-2-oxo-chromen-7-yl]oxypropanoyl]piperidine-3-carboxylic acid against concentration series of the labelled inhibitor
Procedure: as §1, §2, §3
as §4, with “6.) […]” for “6.)”

MDAMB231 = test: SRB assay, IMT combined with inhibitor; settings: MDAMB231 (breast); concentration series of the labelled inhibitor + fixed concentration of IMT (3S)-1-[(2R)-2-[4-(2-chloro-4-fluoro-phenyl)-2-oxo-chromen-7-yl]oxypropanoyl]piperidine-3-carboxylic acid; negative=synergistic, positive=antagonistic
Procedure: as §1, §2, §3, §4

| Structure (SMILES) | difference between the calculated combinatorial index (BLISS) and the observed combinatorial effect (A2780) | difference between the calculated combinatorial index (BLISS) and the observed combinatorial effect (MDAMB468) | difference between the calculated combinatorial index (BLISS) and the observed combinatorial effect (ASPC1) | difference between the calculated combinatorial index (BLISS) and the observed combinatorial effect (A204) | difference between the calculated combinatorial index (BLISS) and the observed combinatorial effect (MCF7) | combinatorial effect in the majority of the cell lines and tissue types examined [1] | difference between the calculated combinatorial index (BLISS) and the observed combinatorial effect (MDAMB231) |
| --- | --- | --- | --- | --- | --- | --- | --- |
| CC(C)(C)c1nc(-c2cccc(NS(=O)(=O)c3c(F)cccc3F)c2F)c(-c2ccnc(N)n2)s1 [Dabrafenib] | 0.0281 | – | – | – | – | – | – |
| O=C(c1ccc(F)c(F)c1Nc1ccc(I)cc1F)N1CC(O)([C@@H]2CCCCN2)C1 [Cobimetinib] | −0.0105 | – | – | – | – | – | – |
| Cc1cc(C(=O)NOCCO)c(Nc2ccc(I)cc2F)n(C)c1=O [AZD8330, 2-((2-Fluoro-4-iodophenyl)amino)-N-(2-hydroxyethoxy)-1,5-dimethyl-6-oxo-1,6-dihydropyridine-3-carboxamide] | 0.0118 | – | – | – | – | – | – |
| CS(=O)(=O)N1CCN(Cc2cc3nc(-c4cccc5[nH]ncc45)nc(N4CCOCC4)c3s2)CC1 [GDC-0941, 2-(1H-Indazol-4-yl)-6-[[4-(methylsulfonyl)-1-piperazinyl]methyl]-4-(4-morpholinyl)thieno[3,2-d]pyrimidine] | 0.0077 | −0.0509 | 0.1003 | 0.3066 | 0.0454 | – | – |
| COc1c(OCCCN2CCOCC2)ccc2c1N=C(NC(=O)c1cnc(N)nc1)N1CCN=C21 [BAY 80-6946, 2-Amino-N-{7-methoxy-8-[3-(4-morpholinyl)propoxy]-2,3-dihydroimidazo[1,2-c]quinazolin-5-yl}-5-pyrimidinecarboxamide] | 0.0466 | 0.0183 | 0.0488 | −0.0098 | 0.0155 | clear synergistic effect | – |
| C[C@H](Nc1ncnc2nc[nH]c12)c1cc2cccc(Cl)c2c(=O)n1-c1ccccc1 [Duvelisib] | 0.0081 | −0.0285 | 0.0753 | −0.0217 | 0.0256 | – | – |
| CC(C)Nc1cc(-c2c[nH]c(C(=O)N[C@H](CO)c3cccc(Cl)c3)c2)c(Cl)cn1 [Ulixertinib] | −0.0025 | – | – | – | – | – | – |
| Cn1cnc2c(F)c(Nc3ccc(Br)cc3Cl)c(C(=O)NOCCO)cc21 [Selumetinib] | −0.0046 | – | – | – | – | – | – |
| O=C(c1cc(Cc2n[nH]c(=O)c3ccccc23)ccc1F)N1CCN(C(=O)C2CC2)CC1 [Olaparib] | −0.0656 | −0.0262 | −0.0583 | −0.0329 | 0.0602 | clear synergistic effect | −0.0488 |
| O=C(NOC[C@H](O)CO)c1ccc(F)c(F)c1Nc1ccc(I)cc1F [PD 0325901, (R)—N-(2,3-dihydroxypropoxy)-3,4-difluoro-2-((2-fluoro-4-iodophenyl)amino)benzamide] | −0.0318 | – | – | – | – | – | – |
| CC(=O)Nc1cccc(-n2c(=O)n(C3CC3)c(=O)c3c(Nc4ccc(I)cc4F)n(C)c(=O)c(C)c32)c1 [Trametinib] | 0.0305 | – | – | – | – | – | – |
